Assay results taken from patent US9550778B2, “Substituted 6-aryl-imidazopyridine and 6-aryl-triazolopyridine carboxamide analogs as negative allosteric modulators of mGluR5” (Vanderbilt University, priority 2014, dated 2017).

Columns and labels:
[1] = molecular target: rat mGluR5 (Rattus norvegicus (Rat), UniProt P31424); assay: Calcium mobilization assay in HEK 293A cells stably expressing rat mGluR5; assay type: cell-based; conditions: for IC50: HEK cells transfected with rat mGluR5, inhibition of glutamate EC80 response, ± standard error where average of at least three experiments; for remaining activity at 30 µM: HEK293-A, amplitude of response in the presence of 30 μM test compound as a percentage of maximal response (100 μM glutamate), read-out: % Glu Max
Chain of rat mGluR5 (P31424 21-1203): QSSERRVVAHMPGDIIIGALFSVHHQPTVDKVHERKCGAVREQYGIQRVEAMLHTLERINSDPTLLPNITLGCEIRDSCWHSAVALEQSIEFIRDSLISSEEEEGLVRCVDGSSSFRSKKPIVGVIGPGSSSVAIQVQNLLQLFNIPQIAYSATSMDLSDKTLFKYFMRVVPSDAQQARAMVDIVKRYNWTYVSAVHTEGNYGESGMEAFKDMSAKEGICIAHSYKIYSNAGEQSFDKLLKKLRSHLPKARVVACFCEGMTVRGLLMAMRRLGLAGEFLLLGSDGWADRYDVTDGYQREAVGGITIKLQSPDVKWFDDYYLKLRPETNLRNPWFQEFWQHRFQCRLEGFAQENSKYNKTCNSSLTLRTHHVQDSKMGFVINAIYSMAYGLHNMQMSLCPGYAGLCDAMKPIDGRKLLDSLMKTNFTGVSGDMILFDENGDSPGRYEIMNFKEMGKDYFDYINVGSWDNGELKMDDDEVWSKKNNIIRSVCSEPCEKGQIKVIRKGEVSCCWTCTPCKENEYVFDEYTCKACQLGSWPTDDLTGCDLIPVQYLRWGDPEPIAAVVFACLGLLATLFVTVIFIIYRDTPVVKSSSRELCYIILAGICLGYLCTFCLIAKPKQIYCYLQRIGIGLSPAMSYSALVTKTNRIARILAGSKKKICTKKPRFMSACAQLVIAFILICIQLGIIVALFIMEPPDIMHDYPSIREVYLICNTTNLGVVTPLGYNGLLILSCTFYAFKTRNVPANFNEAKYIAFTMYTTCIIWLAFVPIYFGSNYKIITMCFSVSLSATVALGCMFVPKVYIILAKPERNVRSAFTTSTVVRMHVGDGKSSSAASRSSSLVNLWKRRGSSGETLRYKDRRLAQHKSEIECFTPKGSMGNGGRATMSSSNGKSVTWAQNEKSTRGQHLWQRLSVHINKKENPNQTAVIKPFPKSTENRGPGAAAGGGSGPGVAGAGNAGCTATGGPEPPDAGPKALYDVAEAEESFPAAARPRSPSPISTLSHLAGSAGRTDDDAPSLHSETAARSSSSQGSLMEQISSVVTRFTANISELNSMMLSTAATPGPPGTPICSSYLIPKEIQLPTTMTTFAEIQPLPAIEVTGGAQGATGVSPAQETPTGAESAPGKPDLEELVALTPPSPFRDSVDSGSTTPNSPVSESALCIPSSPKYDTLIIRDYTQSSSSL
Description: The cells were grown overnight at 37° C. in the presence of 5% CO2. […] Dye was removed, 20 μL of assay buffer was added, and the plate was incubated for 5 minutes at room temperature.
Ca^2+ flux was measured using the Functional Drug Screening System (FDSS7000, Hamamatsu, Japan). After establishment of a fluorescence baseline for about 3 seconds, the compounds of the present invention were added to the cells, and the response in cells was measured. 2.3 minutes later an EC20 concentration of the mGluR5 receptor agonist glutamate was added to the cells, and the response of the cells was measured for 1.9 minutes; an EC80 concentration of agonist was added and readings taken for an additional 1.7 minutes. All test compounds were dissolved and diluted to a concentration of 10 mM in 100% DMSO. Compounds were then serially diluted 1:3 in DMSO into 10 point concentration response curves, transferred to daughter plates, and further diluted into assay buffer to a 2× stock. Calcium fluorescence measures were recorded as fold over basal fluorescence; raw data was then normalized to the maximal response to glutamate.
The raw data file containing all time points was used as the data source in the analysis template. This was saved by the FDSS as a tab-delimited text file. Data were normalized using a static ratio function (F/F0) for each measurement of the total 360 values per well divided by each well's initial value. Data were then reduced to peak amplitudes (Max−Initial Min) using a time range that starts approximately 3 seconds prior to the glutamate EC20/EC80 addition and continues for approximately 90-120 seconds. This is sufficient time to capture the peak amplitude of the cellular calcium response. Individual amplitudes were expressed as % EMax by multiplying each amplitude by 100 and then dividing the product by the mean of the amplitudes derived from the glutamate ECMax-treated wells. IC50 values for test compounds were generated by fitting the normalized values versus the log of the test compound concentration (in mol/L) using a 4 parameter logistic equation where none of the parameters were fixed. Each of the three values collected at each concentration of test compound were weighted evenly.
The mGluR5 activity was determined using the calcium mobilization assays in human embryonic kidney cells as described herein below, wherein the human embryonic kidney cells were transfected with rat mGluR5. The mGluR5 activity data for some compounds are shown as the average of at least three experiments with the standard error in these cases. If no error is indicated for the mGluR5 activity, the values given represent the results from a single experiment or the average of two experiments. The compounds in Table 1 were synthesized with methods identical or analogous to those shown herein. The requisite starting materials were commercially available, described in the literature, or readily synthesized by one skilled in the art of organic synthesis.
GluMax is the amplitude of response in the presence of 30 μM test compound as a percentage of maximal response (100 μM glutamate). Partial antagonists display concentration-response curves (CRCs) that plateau above 10%.

[2] = tested on: N-methyl-D-aspartate (NMDA) receptor; conditions: at higher concentrations; cited from earlier work
[3] = molecular target: mGluR4 (Homo sapiens (Human), UniProt Q14833); conditions: cited from earlier work
Chain of mGluR4 (Q14833 33-912): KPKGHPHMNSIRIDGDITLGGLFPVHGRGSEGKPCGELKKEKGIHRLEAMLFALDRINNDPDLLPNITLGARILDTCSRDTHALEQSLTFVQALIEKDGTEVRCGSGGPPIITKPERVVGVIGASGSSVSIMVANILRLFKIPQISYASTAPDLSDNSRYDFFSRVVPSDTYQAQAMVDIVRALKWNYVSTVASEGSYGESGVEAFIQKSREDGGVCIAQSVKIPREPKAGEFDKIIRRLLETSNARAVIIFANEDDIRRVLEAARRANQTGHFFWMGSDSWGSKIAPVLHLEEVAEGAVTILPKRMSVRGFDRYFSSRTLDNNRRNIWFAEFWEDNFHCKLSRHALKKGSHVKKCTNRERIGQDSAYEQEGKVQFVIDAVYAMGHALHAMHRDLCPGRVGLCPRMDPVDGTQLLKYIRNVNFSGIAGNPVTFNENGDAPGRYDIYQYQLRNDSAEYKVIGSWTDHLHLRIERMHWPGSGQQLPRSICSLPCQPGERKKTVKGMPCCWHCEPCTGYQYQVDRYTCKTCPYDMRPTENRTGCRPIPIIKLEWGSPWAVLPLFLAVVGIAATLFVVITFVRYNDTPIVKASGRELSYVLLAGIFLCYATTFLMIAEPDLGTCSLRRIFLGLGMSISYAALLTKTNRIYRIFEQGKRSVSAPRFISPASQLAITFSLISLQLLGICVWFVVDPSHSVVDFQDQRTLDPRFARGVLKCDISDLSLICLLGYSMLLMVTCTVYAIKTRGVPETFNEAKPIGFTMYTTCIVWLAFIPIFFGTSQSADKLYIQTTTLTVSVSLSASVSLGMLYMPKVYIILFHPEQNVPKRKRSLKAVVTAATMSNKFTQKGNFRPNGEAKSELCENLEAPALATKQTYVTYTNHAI

[4] = molecular target: cytochrome P450 1A2 (Homo sapiens (Human), UniProt P05177); conditions: cited from earlier work
Chain of cytochrome P450 1A2 (P05177 whole entry, species assumed): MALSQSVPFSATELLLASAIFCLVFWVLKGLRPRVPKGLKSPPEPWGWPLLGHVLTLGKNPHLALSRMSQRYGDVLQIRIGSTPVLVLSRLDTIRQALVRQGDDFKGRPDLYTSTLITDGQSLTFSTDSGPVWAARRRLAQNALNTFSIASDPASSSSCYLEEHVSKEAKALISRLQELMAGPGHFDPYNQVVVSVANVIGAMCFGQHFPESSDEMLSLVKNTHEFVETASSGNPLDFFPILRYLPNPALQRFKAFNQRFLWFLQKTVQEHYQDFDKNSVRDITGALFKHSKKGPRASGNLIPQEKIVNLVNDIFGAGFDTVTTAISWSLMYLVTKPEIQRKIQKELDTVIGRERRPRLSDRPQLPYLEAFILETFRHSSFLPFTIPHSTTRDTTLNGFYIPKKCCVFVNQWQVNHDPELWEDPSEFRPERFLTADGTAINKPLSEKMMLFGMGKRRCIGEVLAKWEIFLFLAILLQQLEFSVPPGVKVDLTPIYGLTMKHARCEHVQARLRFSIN

[5] = intravenous administration, rhesus monkeys; cited from earlier work

SMILES: CCc1cccc(NC(=O)c2cc(-c3cnccc3C)cn3ncnc23)n1
- IC50 [1]: 1.76 µM

SMILES: Cc1ccc(NC(=O)c2cc(-c3cnccc3C)cn3ncnc23)nc1
- IC50 [1]: 0.325 µM

SMILES: Cc1ccncc1-c1cc(C(=O)Nc2ccc(F)cn2)c2ncnn2c1
- remaining activity at 30 µM [1]: 52%
- IC50 [1]: > 10 µM

SMILES: Cc1ccncc1-c1cc(C(=O)Nc2ccccn2)c2ncnn2c1
- IC50 [1]: 0.358 µM

SMILES: COc1ccc(NC(=O)c2cc(-c3cnccc3C)cn3ncnc23)nc1
- IC50 [1]: 1.31 µM

SMILES: Cc1cccc(NC(=O)c2cc(-c3cnccc3C)cn3ncnc23)n1
- IC50 [1]: 0.793 µM

SMILES: COc1cccc(NC(=O)c2cc(-c3cnccc3C)cn3ncnc23)n1
- remaining activity at 30 µM [1]: 31%
- IC50 [1]: > 10 µM

SMILES: Cc1csc(NC(=O)c2cc(-c3cnccc3C)cn3ncnc23)n1
- IC50 [1]: 0.17 µM

SMILES: Cc1csc(NC(=O)c2cc(-c3ccccc3)cn3ncnc23)n1
- IC50 [1]: 0.385 µM

SMILES: Cc1csc(NC(=O)c2cc(-c3ccc4ncccc4c3)cn3ncnc23)n1
- remaining activity at 30 µM [1]: 74%
- IC50 [1]: > 10 µM

SMILES: Cc1csc(NC(=O)c2cc(-c3cccnc3)cn3ncnc23)n1
- IC50 [1]: 0.587 µM

SMILES: Cc1csc(NC(=O)c2cc(-c3cc(C)nn3C)cn3ncnc23)n1
- IC50 [1]: 0.69 µM

SMILES: Cc1cccc(-c2cc(C(=O)Nc3nc(C)cs3)c3ncnn3c2)c1
- IC50 [1]: 4.77 µM

SMILES: Cc1csc(NC(=O)c2cc(-c3ccc4occc4c3)cn3ncnc23)n1
- IC50 [1]: > 30 µM

SMILES: Cc1csc(NC(=O)c2cc(-c3cnc(F)c(C)c3)cn3ncnc23)n1
- IC50 [1]: 2.81 µM

SMILES: Cc1csc(NC(=O)c2cc(-c3cccc4c3cnn4C)cn3ncnc23)n1
- IC50 [1]: 7.02 µM

SMILES: Cc1cc(-c2cc(C(=O)Nc3nc(C)cs3)c3ncnn3c2)ccn1
- IC50 [1]: 10 µM

SMILES: COc1cnc(-c2cc(C(=O)Nc3nc(C)cs3)c3ncnn3c2)cn1
- remaining activity at 30 µM [1]: 71%
- IC50 [1]: > 10 µM

SMILES: Cc1csc(NC(=O)c2cc(-c3cn(C)nc3C)cn3ncnc23)n1
- IC50 [1]: 2.16 µM

SMILES: Cc1csc(NC(=O)c2cc(-c3ccc(F)nc3)cn3ncnc23)n1
- IC50 [1]: 4.93 µM

SMILES: Cc1csc(NC(=O)c2cc(-c3cccnc3F)cn3ncnc23)n1
- IC50 [1]: 0.978 µM

SMILES: Cc1csc(NC(=O)c2cc(-c3ccc4c(ccn4C)c3)cn3ncnc23)n1
- remaining activity at 30 µM [1]: 27%
- IC50 [1]: > 10 µM

SMILES: Cc1csc(NC(=O)c2cc(-c3ccc4c(cnn4C)c3)cn3ncnc23)n1
- remaining activity at 30 µM [1]: 53%
- IC50 [1]: > 10 µM

SMILES: Cc1csc(NC(=O)c2cc(-c3cc4ccccc4o3)cn3ncnc23)n1
- remaining activity at 30 µM [1]: 39%
- IC50 [1]: > 10 µM

SMILES: Cc1csc(NC(=O)c2cc(-c3cccc4cnn(C)c34)cn3ncnc23)n1
- IC50 [1]: 10.2 µM

SMILES: Cc1csc(NC(=O)c2cc(-c3ccc4cnn(C)c4c3)cn3ncnc23)n1
- remaining activity at 30 µM [1]: 30%
- IC50 [1]: > 10 µM

SMILES: Cc1cncc(-c2cc(C(=O)Nc3nc(C)cs3)c3ncnn3c2)c1
- IC50 [1]: 1.5 µM

SMILES: Cc1cc(C)cc(-c2cc(C(=O)Nc3nc(C)cs3)c3ncnn3c2)c1
- remaining activity at 30 µM [1]: 57%
- IC50 [1]: > 10 µM

SMILES: Cc1csc(NC(=O)c2cc(-c3ccccc3C)cn3ncnc23)n1
- IC50 [1]: 7.94 µM

SMILES: COc1ccc(C)c(-c2cc(C(=O)Nc3nc(C)cs3)c3ncnn3c2)c1
- IC50 [1]: 7.1 µM

SMILES: Cc1csc(NC(=O)c2cc(-c3cnccc3C3CC3)cn3ncnc23)n1
- IC50 [1]: 1.01 µM

SMILES: CCc1ccncc1-c1cc(C(=O)Nc2nc(C)cs2)c2ncnn2c1
- IC50 [1]: 0.984 µM

SMILES: Cc1csc(NC(=O)c2cc(-c3cccc(F)c3)cn3ncnc23)n1
- IC50 [1]: 0.788 µM

SMILES: Cc1csc(NC(=O)c2cc(-c3cnn(C)c3)cn3ncnc23)n1
- remaining activity at 30 µM [1]: 30%
- IC50 [1]: > 10 µM

SMILES: Cc1csc(NC(=O)c2cc(-c3ccnn3C)cn3ncnc23)n1
- IC50 [1]: 0.378 ± 0.017 µM

SMILES: CCn1nccc1-c1cc(C(=O)Nc2nc(C)cs2)c2ncnn2c1
- IC50 [1]: 3.92 µM

SMILES: Cc1csc(NC(=O)c2cc(-c3cncnc3)cn3ncnc23)n1
- IC50 [1]: 0.758 ± 0.28 µM

SMILES: Cc1cc(-c2cc(C(=O)Nc3nc(C)cs3)c3ncnn3c2)[nH]n1
- IC50 [1]: 0.06 ± 0.008 µM

SMILES: Cc1csc(NC(=O)c2cc(-c3ccncc3)cn3ncnc23)n1
- IC50 [1]: 8.07 µM

SMILES: Cc1csc(NC(=O)c2cc(-c3ccnnc3)cn3ncnc23)n1
- remaining activity at 30 µM [1]: 27%
- IC50 [1]: > 10 µM

SMILES: Cc1csc(NC(=O)c2cc(-c3cnncc3C)cn3ncnc23)n1
- IC50 [1]: 2.91 µM

SMILES: Cc1csc(NC(=O)c2cc(-c3ccn(C)n3)cn3ncnc23)n1
- remaining activity at 30 µM [1]: 70%
- IC50 [1]: > 10 µM

SMILES: Cc1cc(-c2cc(C(=O)Nc3ccccn3)c3nccn3c2)[nH]n1
- IC50 [1]: 1.14 µM

SMILES: Cc1cc(-c2cc(C(=O)Nc3nc(C)cs3)c3nccn3c2)[nH]n1
- IC50 [1]: 1.41 µM

SMILES: Cc1ccc(NC(=O)c2cc(-c3cc(C)n[nH]3)cn3ccnc23)nc1
- IC50 [1]: 5.11 µM

SMILES: Cc1cc(-c2cc(C(=O)Nc3ccc(F)cn3)c3nccn3c2)[nH]n1
- IC50 [1]: 3.93 µM

SMILES: Cc1cc(-c2cc(C(=O)Nc3ccc(F)cn3)c3ncnn3c2)n(C)n1
- IC50 [1]: 2.13 µM

SMILES: Cc1cc(-c2cc(C(=O)Nc3cccc(F)n3)c3ncnn3c2)n(C)n1
- IC50 [1]: 0.835 µM

SMILES: Cn1nccc1-c1cc(C(=O)Nc2ccc(F)cn2)c2nncn2c1
- IC50 [1]: 1.45 µM

SMILES: Cc1cc(-c2cc(C(=O)Nc3ccc(F)cn3)c3ncnn3c2)[nH]n1
- IC50 [1]: > 30 µM

SMILES: Cc1cccc(C#Cc2ccccc2)n1 [MPEP, 2-methyl-6-(phenylethynyl)pyridine]
- inhibition of NMDA receptor activity [2]: directly inhibit
- activity at mGluR4 [3]: positive allosteric modulator

SMILES: Cc1nc(C#Cc2cccnc2)cs1 [MTEP, 3-[(2-methyl-1,3-thiazol-4-yl)ethynyl]pyridine]
- inhibition of cytochrome P450 1A2 [4]: potent inhibitor
- clearance [5]: efficiently cleared
